Results as given in the NIST ThermoML archive (doi:10.1021/je800110r).
“And” between values parts separate entries of the source, which are not always exact repeats. Equal values may be shown once.

Settings: Liquid, Vibrating tube method

CCCCCCCCCC [decane]
Settings	mass density
313.16 K, 749 kPa	715.1 kg/m3
313.16 K, 764 kPa	715.3 kg/m3
313.16 K, 784 kPa	715.3 kg/m3
313.16 K, 800 kPa	715.3 kg/m3
313.16 K, 813 kPa	715.2 kg/m3
313.16 K, 837 kPa	715.4 kg/m3
313.16 K, 852 kPa	715.2 kg/m3
313.16 K, 870 kPa	715.4 kg/m3
313.16 K, 891 kPa	715.4 kg/m3
313.16 K, 916 kPa	715.3 kg/m3
313.16 K, 938 kPa	715.3 kg/m3
313.16 K, 958 kPa	715.5 kg/m3
313.16 K, 978 kPa	715.4 kg/m3
323.14 K, 3098 kPa	709.7 kg/m3
323.14 K, 3118 kPa	709.8 kg/m3
323.14 K, 3138 kPa	709.6 kg/m3
323.14 K, 3156 kPa	709.6 kg/m3
323.14 K, 3176 kPa	709.7 kg/m3
323.14 K, 3200 kPa	709.7 kg/m3
323.14 K, 3221 kPa	709.8 kg/m3
323.14 K, 3243 kPa	709.8 kg/m3
323.14 K, 3271 kPa	709.9 kg/m3
323.14 K, 3297 kPa	709.9 kg/m3
323.14 K, 3322 kPa	709.9 kg/m3
323.14 K, 3345 kPa	709.8 kg/m3
323.14 K, 3372 kPa	709.8 kg/m3
323.14 K, 3400 kPa	710 kg/m3
323.14 K, 3430 kPa	709.9 kg/m3
323.14 K, 3451 kPa	710 kg/m3
323.14 K, 3477 kPa	710 kg/m3
323.14 K, 3502 kPa	710.1 kg/m3
323.14 K, 3524 kPa	710.2 kg/m3
323.14 K, 3549 kPa	710.1 kg/m3
323.14 K, 3571 kPa	710.1 kg/m3
323.14 K, 3597 kPa	710.2 kg/m3
323.14 K, 3614 kPa	710.1 kg/m3
323.14 K, 3637 kPa	710.2 kg/m3
323.14 K, 3661 kPa	710.2 kg/m3
323.14 K, 3681 kPa	710.1 kg/m3
323.14 K, 3715 kPa	710.2 kg/m3
323.14 K, 3736 kPa	710.3 kg/m3
323.14 K, 3761 kPa	710.4 kg/m3
323.14 K, 3794 kPa	710.3 kg/m3
323.14 K, 3819 kPa	710.3 kg/m3
323.14 K, 3849 kPa	710.3 kg/m3
323.14 K, 3879 kPa	710.4 kg/m3
323.14 K, 3911 kPa	710.4 kg/m3
323.14 K, 3939 kPa	710.5 kg/m3
323.14 K, 3959 kPa	710.5 kg/m3
323.14 K, 3978 kPa	710.4 kg/m3
323.14 K, 4004 kPa	710.5 kg/m3
323.14 K, 4033 kPa	710.5 kg/m3
323.14 K, 4053 kPa	710.5 kg/m3
323.14 K, 4078 kPa	710.6 kg/m3
323.14 K, 4103 kPa	710.7 kg/m3
323.14 K, 4122 kPa	710.7 kg/m3
323.14 K, 4144 kPa	710.6 kg/m3
323.14 K, 4164 kPa	710.6 kg/m3
323.14 K, 4191 kPa	710.6 kg/m3
323.14 K, 4213 kPa	710.8 kg/m3
323.14 K, 4230 kPa	710.8 kg/m3
323.14 K, 4248 kPa	710.7 kg/m3
323.14 K, 4405 kPa	710.9 kg/m3
323.14 K, 4447 kPa	710.9 kg/m3
323.14 K, 4462 kPa	710.9 kg/m3
323.14 K, 4506 kPa	711 kg/m3
323.14 K, 4528 kPa	711 kg/m3
323.14 K, 4550 kPa	711 kg/m3
323.14 K, 4566 kPa	711 kg/m3
323.14 K, 4587 kPa	711 kg/m3
323.14 K, 4704 kPa	711.1 kg/m3
323.14 K, 4721 kPa	711.2 kg/m3
323.14 K, 4739 kPa	711.2 kg/m3
323.14 K, 4770 kPa	711.2 kg/m3
323.14 K, 4793 kPa	711.3 kg/m3
323.14 K, 4804 kPa	711.2 kg/m3
323.14 K, 4818 kPa	711.3 kg/m3
323.14 K, 4838 kPa	711.3 kg/m3
323.14 K, 4970 kPa	711.3 kg/m3
323.14 K, 5064 kPa	711.5 kg/m3
323.14 K, 5127 kPa	711.5 kg/m3
323.14 K, 5175 kPa	711.5 kg/m3
323.14 K, 5178 kPa	711.6 kg/m3
323.14 K, 5183 kPa	711.6 kg/m3
323.14 K, 5184 kPa	711.5 kg/m3
323.14 K, 5187 kPa	711.6 kg/m3
323.14 K, 5189 kPa	711.6 kg/m3
323.14 K, 5191 kPa	711.6 kg/m3
323.14 K, 5192 kPa	711.5 kg/m3 and 711.6 kg/m3
323.14 K, 5193 kPa	711.5 kg/m3
323.14 K, 5216 kPa	711.7 kg/m3
323.14 K, 5238 kPa	711.6 kg/m3
323.14 K, 5256 kPa	711.7 kg/m3
323.14 K, 5276 kPa	711.6 kg/m3
323.14 K, 5291 kPa	711.7 kg/m3
323.14 K, 5312 kPa	711.6 kg/m3
323.14 K, 5335 kPa	711.7 kg/m3
323.14 K, 5353 kPa	711.8 kg/m3
323.14 K, 5375 kPa	711.7 kg/m3
323.14 K, 5406 kPa	711.8 kg/m3
323.14 K, 5428 kPa	711.7 kg/m3
323.14 K, 5450 kPa	711.7 kg/m3
323.14 K, 5468 kPa	711.9 kg/m3
323.14 K, 5487 kPa	711.9 kg/m3
323.14 K, 5506 kPa	711.8 kg/m3
323.14 K, 5535 kPa	711.9 kg/m3
323.14 K, 5551 kPa	711.8 kg/m3
323.14 K, 5575 kPa	712 kg/m3
323.14 K, 5594 kPa	711.9 kg/m3
323.14 K, 5611 kPa	712 kg/m3
323.14 K, 5631 kPa	712 kg/m3
323.14 K, 5670 kPa	712 kg/m3
323.14 K, 5697 kPa	712.1 kg/m3
323.14 K, 5721 kPa	712.1 kg/m3
323.14 K, 5738 kPa	712.1 kg/m3
323.14 K, 5756 kPa	712 kg/m3
323.14 K, 5770 kPa	712 kg/m3
323.14 K, 5788 kPa	712 kg/m3
323.14 K, 5909 kPa	712.2 kg/m3
323.14 K, 5924 kPa	712.2 kg/m3
323.14 K, 5940 kPa	712.3 kg/m3
323.14 K, 5955 kPa	712.2 kg/m3
323.14 K, 5968 kPa	712.3 kg/m3
323.14 K, 5986 kPa	712.3 kg/m3
323.14 K, 6004 kPa	712.2 kg/m3
323.14 K, 6022 kPa	712.4 kg/m3
323.14 K, 6037 kPa	712.3 kg/m3
323.14 K, 6056 kPa	712.3 kg/m3
323.14 K, 6076 kPa	712.5 kg/m3
323.14 K, 6089 kPa	712.4 kg/m3
323.14 K, 6105 kPa	712.3 kg/m3
323.14 K, 6124 kPa	712.5 kg/m3
323.14 K, 6144 kPa	712.5 kg/m3
323.14 K, 6167 kPa	712.5 kg/m3
323.14 K, 6179 kPa	712.3 kg/m3
323.14 K, 6202 kPa	712.5 kg/m3
323.14 K, 6217 kPa	712.4 kg/m3
